Reference: ChEMBL document CHEMBL4765228, “Indole-like Trk receptor antagonists” (Eur J Med Chem, 2016)

How the values were obtained:
[1] = molecular target: T1, High affinity nerve growth factor receptor (Homo sapiens, UniProt P04629); experiment: Inhibition of TrkA (unknown origin)
[2] = molecular target: T1, High affinity nerve growth factor receptor; experiment: Inhibition of GAL4 fused TrkA (unknown origin) expressed in PC12 cells transfected with pFA2-Elk plasmid and pFR-luciferase plasmid measured for 18 hrs by luciferase reporter gene assay; format: cell-based, Rattus norvegicus, PC-12
[3] = molecular target: T1, High affinity nerve growth factor receptor; experiment: Inhibition of GST-fused TrkA (unknown origin) expressed in SF9 cells using H2N-RRRAAAEEIYGEINH2 peptide as substrate preincubated with ATP and Mg and measured by microtiter plate reader analysis

T1 sequence (P04629 whole entry, the tested form may be a part): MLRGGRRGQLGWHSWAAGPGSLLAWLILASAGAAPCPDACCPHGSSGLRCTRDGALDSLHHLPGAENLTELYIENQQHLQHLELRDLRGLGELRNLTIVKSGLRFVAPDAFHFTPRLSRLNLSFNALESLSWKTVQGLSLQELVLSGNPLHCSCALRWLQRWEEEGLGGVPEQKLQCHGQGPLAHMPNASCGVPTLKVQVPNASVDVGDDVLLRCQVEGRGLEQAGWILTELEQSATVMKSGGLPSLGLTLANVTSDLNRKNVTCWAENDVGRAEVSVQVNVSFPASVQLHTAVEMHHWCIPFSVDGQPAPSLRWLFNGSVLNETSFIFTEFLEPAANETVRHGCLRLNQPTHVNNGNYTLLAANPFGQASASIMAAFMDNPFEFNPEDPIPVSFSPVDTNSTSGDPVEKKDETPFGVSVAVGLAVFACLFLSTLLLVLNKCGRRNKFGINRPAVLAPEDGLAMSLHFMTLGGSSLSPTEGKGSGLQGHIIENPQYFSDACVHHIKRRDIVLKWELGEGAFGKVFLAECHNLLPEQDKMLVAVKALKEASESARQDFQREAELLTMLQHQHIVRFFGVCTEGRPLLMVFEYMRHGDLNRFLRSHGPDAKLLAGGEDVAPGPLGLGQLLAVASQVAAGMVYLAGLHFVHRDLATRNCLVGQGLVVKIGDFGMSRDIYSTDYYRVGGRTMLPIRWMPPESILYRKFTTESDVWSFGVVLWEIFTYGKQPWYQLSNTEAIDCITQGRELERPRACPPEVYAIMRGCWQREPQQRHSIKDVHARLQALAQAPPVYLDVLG

| SMILES | IC50 [1] [nM] | IC50 [2] [nM] | IC50 [3] [nM] |
| --- | --- | --- | --- |
| O=C1Nc2ccccc2/C1=C\c1c(Cl)[nH]c2ccccc12 | > 10000 |  |  |
| NS(=O)(=O)c1ccc(N/C=C2\C(=O)Nc3ccccc32)cc1 |  |  | 63 |
| Cc1[nH]c2ccccc2c1/C=C1\C(=O)Nc2ccccc21 | > 10000 |  |  |
| Cn1cc(/C=C2\C(=O)Nc3ccccc32)c2ccccc21 | 25.7 | 998 |  |

The next lines start with the values.

| IC50 [1] [nM] | IC50 [2] [nM] | IC50 [3] [nM] | SMILES |
| --- | --- | --- | --- |
| 11.1 | 342 |  | NS(=O)(=O)c1ccc2c(c1)/C(=C/c1c[nH]c3ccccc13)C(=O)N2 |
| 5.22 | 366 |  | NS(=O)(=O)c1ccc2c(c1)/C(=C/c1c[nH]c3ccc(O)cc13)C(=O)N2 |
